Laboratory results from patent US11059818B2, “Triazolopyridine inhibitors of myeloperoxidase” (BRISTOL-MYERS SQUIBB COMPANY, priority 2016, dated 2021).

What was measured:
myeloperoxidase [1] = target: T1, myeloperoxidase (Homo sapiens (Human), UniProt P05164); experiment: MPO Peroxidation Assay (Amplex Red Assay); assay type: biochemical; settings: potency range class
Procedure: MPO Peroxidation Assay (Amplex Red Assay)
MPO peroxidation activity was measured in 100 mM KPi (pH 7.4) by utilizing the non-fluorescent reagent Amplex Red (Invitrogen Cat. #A12222) which can be oxidized to the highly fluorescent resorufin. Amplex Red is oxidized by the peroxidase action of MPO to resorufin. Reactions were carried out in 50 μL total volume by adding a 25 μL mixture of 200 pM myeloperoxidase and 40 nM H2O2(Sigma #349887) to 100 nL inhibitor in 100% DMSO in a 384 well Perkin Elmer Optiplate. Enzyme and compound were preincubated for ten minutes at rt.
After the ten minute preincubation, 25 μL of an Amplex Red mixture containing 200 μM Amplex Red and 10 mM H2O2 was added to the plate. Kinetic determinations were carried out immediately on a Perkin Elmer Envision (15 minute kinetic read, Ex: 535 nm, Em: 590 nm).
IC50 values were calculated by determining the slope of the linear portion of the kinetic trace (180-540 secs), and using that calculated slope to determine % inhibition occurring at each concentration of inhibitor using the following equation:
(§1) [formula] where A=minimal Y value (activity level of inhibited sample), B=maximal Y value (activity level of uninhibited sample), C=Log IC50, D=Hill Slope, x=concentration of inhibitor. MPO Chlorination Assay (APF Assay)

myeloperoxidase [2] = target: T1, myeloperoxidase; experiment: MPO Chlorination Assay (APF Assay); assay type: biochemical; settings: potency range class
Procedure: as §1
MPO chlorination activity was measured in 100 mM KPi (pH 7.4) by utilizing the non-fluorescent reagent Aminophenyl fluorescein (APF, Invitrogen Cat. #A36003). APF is cleaved by (—OCl) to yield the fluorescent compound fluorescein. Reactions were carried out in 50 μL total volume by adding a 25 μL mixture of 200 pM myeloperoxidase and 120 mM NaCl to 100 nL inhibitor in 100% DMSO in a 384 well, non-binding surface clear bottom plate (Corning #3655). Enzyme, inhibitor, and chloride were preincubated for ten minutes at rt.
After the ten minute preincubation, 25 μL of an APF mixture containing […], 120 mM NaCl and 10 μM H2O2 was added to the plate using the internal dispensing system of a Hammatsu FDSS 6000. Kinetic determinations were carried out immediately on the FDSS 6000 (3 minute kinetic read, 1 read every second, ex: 485 nm, em: 535 nm). IC50 values for inhibitors were calculated by taking the slope of the linear portion of the kinetic measurement (20 seconds to ˜80-120 secs). […]
[formula] where A=minimal Y value (activity level of inhibited sample), B=maximal Y value (activity level of uninhibited sample), C=Log IC50, D=Hill Slope, x=concentration of inhibitor.

T1 sequence (P05164 49-745): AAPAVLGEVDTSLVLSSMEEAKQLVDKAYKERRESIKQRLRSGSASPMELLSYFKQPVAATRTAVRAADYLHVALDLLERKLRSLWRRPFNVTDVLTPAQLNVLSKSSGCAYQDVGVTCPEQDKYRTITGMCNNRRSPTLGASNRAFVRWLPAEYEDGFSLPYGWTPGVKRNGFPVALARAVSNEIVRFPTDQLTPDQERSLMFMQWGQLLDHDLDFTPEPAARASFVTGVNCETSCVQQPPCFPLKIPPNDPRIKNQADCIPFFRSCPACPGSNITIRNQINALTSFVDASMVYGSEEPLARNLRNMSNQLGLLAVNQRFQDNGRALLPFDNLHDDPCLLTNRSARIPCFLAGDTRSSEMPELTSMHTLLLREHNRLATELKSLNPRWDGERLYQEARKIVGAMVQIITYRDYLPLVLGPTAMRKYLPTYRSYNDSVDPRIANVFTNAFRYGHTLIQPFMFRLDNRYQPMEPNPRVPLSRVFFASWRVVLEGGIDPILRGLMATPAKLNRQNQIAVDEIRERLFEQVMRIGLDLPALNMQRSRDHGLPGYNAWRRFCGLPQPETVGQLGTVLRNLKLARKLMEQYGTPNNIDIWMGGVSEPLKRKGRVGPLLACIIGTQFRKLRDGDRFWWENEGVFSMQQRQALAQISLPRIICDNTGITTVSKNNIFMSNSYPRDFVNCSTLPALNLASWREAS

| SMILES | IC50 (myeloperoxidase [1]) [nM] | IC50 (myeloperoxidase [2]) [nM] |
| --- | --- | --- |
| Nc1cc(C(CCN[C@H]2CC[C@H](c3ccccc3)CC2)c2cn[nH]c2)c2nn[nH]c2n1 (stereo partly drawn) [Example 22, 7-[1-(1H-Pyrazol-4-yl)-3-{[trans-4-phenylcyclohexyl]amino}propyl]-3H-[1,2,3]triazolo[4,5-b]pyridin-5-amine] | 1000 to 10000 | 101 to 999 |
| Nc1cc(C(CCN[C@H]2CC[C@H](c3ccccc3)CC2)c2cnn(C3CCCC3)c2)c2nn[nH]c2n1 (stereo partly drawn) [Example 23, 7-[1-(1-Cyclopentyl-1H-pyrazol-4-yl)-3-{[trans-4-phenylcyclohexyl]amino}propyl]-3H-[1,2,3]triazolo[4,5-b]pyridin-5-amine] | 1000 to 10000 | 1 to 100 |
| Nc1cc(C(CCN[C@H]2CC[C@H](c3ccccc3)CC2)c2cnn(C3CCC3(F)F)c2)c2nn[nH]c2n1 (stereo partly drawn) [Example 28, 7-{1-[1-(2,2-Difluorocyclobutyl)-1H-pyrazol-4-yl]-3-{[trans-4-phenylcyclohexyl]amino}propyl}-3H-[1,2,3]triazolo[4,5-b]pyridin-5-amine] | 101 to 999 | 1 to 100 |
| Nc1cc(C(CCN[C@H]2CC[C@H](c3ccccc3)CC2)c2cnn(C3CC(F)C3(F)F)c2)c2nn[nH]c2n1 (stereo partly drawn) [Example 29, 7-(3-{[trans-4-phenylcyclohexyl]amino}-1-[1-(2,2,3-trifluorocyclobutyl)-1H-pyrazol-4-yl]propyl)-3H-[1,2,3]triazolo[4,5-b]pyridin-5-amine] | 101 to 999 | 1 to 100 |
| Nc1cc(C(CCN[C@H]2CC[C@H](c3ccccc3)CC2)c2cnn(C3CC3)c2)c2nn[nH]c2n1 (stereo partly drawn) [Example 32, 7-[1-(1-Cyclopropyl-1H-pyrazol-4-yl)-3-{[trans-4-phenylcyclohexyl]amino}propyl]-3H-[1,2,3]triazolo[4,5-b]pyridin-5-amine] | 1000 to 10000 | 101 to 999 |

The remaining lines, values ahead:

| IC50 (myeloperoxidase [1]) [nM] | IC50 (myeloperoxidase [2]) [nM] | SMILES |
| --- | --- | --- |
| 101 to 999 | 101 to 999 | Nc1cc(C(CCN[C@H]2CC[C@H](c3ccccc3)CC2)c2cnn(CC3CCC3)c2)c2nn[nH]c2n1 (stereo partly shown) [Example 21, 7-{1-[1-(Cyclobutylmethyl)-1H-pyrazol-4-yl]-3-{[(1 r,4r)-4-phenylcyclohexyl]amino}propyl}-3H-[1,2,3]triazolo[4,5-b]pyridin-5-amine] |
| 101 to 999 | 1 to 100 | Nc1cc(C(CCN[C@H]2CC[C@H](c3ccccc3)CC2)c2cnn(Cc3cccc4ccccc34)c2)c2nn[nH]c2n1 (stereo partly drawn) [Example 24, 7-{1-[1-(Naphthalen-1-ylmethyl)-1H-pyrazol-4-yl]-3-{[trans-4-phenylcyclohexyl]amino}propyl}-3H-[1,2,3]triazolo[4,5-b]pyridin-5-amine] |
| 101 to 999 | 1 to 100 | Nc1cc(C(CCN[C@H]2CC[C@H](c3ccccc3)CC2)c2cnn(Cc3cccc(OC(F)F)c3)c2)c2nn[nH]c2n1 (stereo partly drawn) [Example 25, 7-[1-(1-{[3-(Difluoromethoxy)phenyl]methyl}-1H-pyrazol-4-yl)-3-{[trans-4-phenylcyclohexyl]amino}propyl]-3H-[1,2,3]triazolo[4,5-b]pyridin-5-amine] |
| 101 to 999 | 1 to 100 | Nc1cc(C(CCN[C@H]2CC[C@H](c3ccccc3)CC2)c2cnn(Cc3cc(F)cc(F)c3)c2)c2nn[nH]c2n1 (stereo partly drawn) [Example 26, 7-(1-{1-[(3,5-Difluorophenyl)methyl]-1H-pyrazol-4-yl}-3-{[trans-4-phenylcyclohexyl]amino}propyl)-3H-[1,2,3]triazolo[4,5-b]pyridin-5-amine] |
| 101 to 999 | 1 to 100 | Nc1cc(C(CCN[C@H]2CC[C@H](c3ccccc3)CC2)c2cnn(CCC(F)(F)F)c2)c2nn[nH]c2n1 (stereo partly drawn) [Example 30, 7-(3-{[trans-4-Phenylcyclohexyl]amino}-1-[1-(3,3,3-trifluoropropyl)-1H-pyrazol-4-yl]propyl)-3H-[1,2,3]triazolo[4,5-b]pyridin-5-amine] |
| 101 to 999 | 1 to 100 | Nc1cc(C(CCN[C@H]2CC[C@H](c3ccccc3)CC2)c2cnn(Cc3cccc(C(F)(F)F)c3)c2)c2nn[nH]c2n1 (stereo partly drawn) [Example 31, 7-(3-{[trans-4-Phenylcyclohexyl]amino}-1-(1-{[3-(trifluoromethyl)phenyl]methyl}-1H-pyrazol-4-yl)propyl)-3H-[1,2,3]triazolo[4,5-b]pyridin-5-amine] |
